{
  "source": "patent US7491415B2",
  "about": "(priority 2005, dated 2009)",
  "key": {"Magnaporthe grisea [1]": {"test_system": "Magnaporthe grisea", "assay_type": "in vivo", "conditions": "RCB rice blast, infected leaf area after 7 days"}, "Corticium sasaki": {"test_system": "Corticium sasaki", "assay_type": "in vivo", "conditions": "after 8 days"}, "Magnaporthe grisea [2]": {"test_system": "Magnaporthe grisea", "test": "microbe, parasite or virus in culture", "assay_type": "cell-based", "conditions": "Pyricularia oryzae"}, "[3]": {"test": "Acute toxicity test, oral, mice", "assay_type": "in vivo", "conditions": "male, mouse, in vivo, ICR mice, single administration, 7 days observation", "protocol": "(§1) To perform an acute toxicity test of Chloranthus henryi extract and the sesquiterpene compound of formula (1), 6-week-old ICR mice (♂, 25 g, Korean Bio Corp.) were divided into 4 groups with two mice per each group, and raised under the condition of 22±3° C., 55±10% (humidity), 12L/12D (intensity of illumination). The mice were adapted for 1 week, and freely fed with foods for test animals (Jeil Feed Corp., Korea, for mouse and rat) and sterilized water.\n(§2) Chloranthus henryi extract and the sesquiterpene compound of formula (1) were dissolved in a small amount of dimethyl sulfoxide (DMSO), and diluted with 1% carboxylmethyl cellulose. Four groups of mice were orally administered with 540 mg/kg, 180 mg/kg, 60 mg/kg and 20 mg/kg, respectively. Control group was administered with 1% carboxylmethyl cellulose. For 7 days after the administration, the presence of side effects or mortality was observed as follows. […] The changes in clinical signs and mortality of animals after administration were observed twice everyday for 7 days, i.e., in the morning and in the afternoon.\n(§3) Further, the internal organs of the dead mice were examined through macroscopic observation after necropsy on the 7th day. The change in body weight of animals by Chloranthus henryi extract and sesquiterpene compound of formula (1) was observed everyday after administration."}, "ICR mice": {"test_system": "ICR mice", "test": "Acute toxicity test, oral, mice", "assay_type": "in vivo", "protocol": "as §1, §2, §3"}, "[4]": {"test_system": "Colletotrichum lagenarium", "test": "microbe, parasite or virus in culture", "assay_type": "cell-based", "conditions": "Colletotrichum orbiculare"}, "Phytophthora infestans": {"test_system": "Phytophthora infestans", "assay_type": "in vivo", "conditions": "for In vivo control values: TLB tomato late blight, after 4 days"}, "Fusarium oxysporum": {"test_system": "Fusarium oxysporum", "test": "microbe, parasite or virus in culture", "assay_type": "cell-based"}, "Botrytis cinerea": {"test_system": "Botrytis cinerea", "test": "microbe, parasite or virus in culture", "assay_type": "cell-based"}, "Puccinia recondita": {"test_system": "Puccinia recondita", "assay_type": "in vivo"}, "Pythium ultimum": {"test_system": "Pythium ultimum", "test": "microbe, parasite or virus in culture", "assay_type": "cell-based", "conditions": "Globisporangium ultimum"}, "Alternaria kikuchiana": {"test_system": "Alternaria kikuchiana", "test": "microbe, parasite or virus in culture", "assay_type": "cell-based"}, "Rhizoctonia solani": {"test_system": "Rhizoctonia solani", "test": "microbe, parasite or virus in culture", "assay_type": "cell-based"}},
  "note": "Several values for one entry are separate records, joined by “and”; a condition that tells them apart may be missing. Equal entries are not always repeated. Where two headings read alike, the source gives them in different places.",
  "data": [
    {"smiles": "C/C=C(\\C)C(=O)OC[C@]1(O)[C@H]2C[C@H]2[C@]2(C)[C@@H]3CC4=C5[C@H](/C(=C(\\C)C(=O)OC)C(=O)[C@H](O)[C@@]5(C)[C@@H]5C[C@H]45)[C@@]34OC(=O)C(COC(C)=O)=C4C[C@@H]12", "note": "[CHE-23C]", "values": [
      {"measurement": "In vivo control values", "setting": "Magnaporthe grisea [1]; 11 ppm spray", "result": 67, "unit": "%"},
      {"measurement": "In vivo control values", "setting": "Magnaporthe grisea [1]; 33 ppm spray", "result": 50, "unit": "%"},
      {"measurement": "In vivo control values", "setting": "Magnaporthe grisea [1]; 100 ppm spray", "result": 72, "unit": "%"},
      {"measurement": "In vivo control values", "setting": "Corticium sasaki", "result": "69% and 50%"},
      {"measurement": "MIC", "setting": "Magnaporthe grisea [2]", "result": 4, "unit": "µg/mL"},
      {"measurement": "LD50 at 7 days", "setting": "[3]", "result": "> 540", "unit": "mg/kg"},
      {"measurement": "mortality in the maximum dosage group", "setting": "ICR mice; 540 mg/kg, 7 days", "result": "all the mice in the maximum dosage group (540 mg/kg) survived"},
      {"measurement": "gross findings caused by the test materials", "setting": "ICR mice; 20-540 mg/kg, all treated groups, necropsy on the 7th day", "result": "no significant gross findings"},
      {"measurement": "MIC", "setting": "[4]", "result": 8, "unit": "µg/mL"},
      {"measurement": "control values in the greenhouse experiments (in words)", "setting": "Phytophthora infestans; Phytophthora infestans, greenhouse", "result": "potent control values"},
      {"measurement": "In vivo control values", "setting": "Phytophthora infestans; 11 ppm spray", "result": 29, "unit": "%"},
      {"measurement": "In vivo control values", "setting": "Phytophthora infestans; 33 ppm spray", "result": 91, "unit": "%"},
      {"measurement": "In vivo control values", "setting": "Phytophthora infestans; 100 ppm spray", "result": 93, "unit": "%"},
      {"measurement": "MIC", "setting": "Fusarium oxysporum", "result": 16, "unit": "µg/mL"},
      {"measurement": "MIC", "setting": "Botrytis cinerea", "result": 8, "unit": "µg/mL"},
      {"measurement": "In vivo control values", "setting": "Puccinia recondita; after 7 days", "result": "100% and 87% and 80%"},
      {"measurement": "control values in the greenhouse experiments (in words)", "setting": "Puccinia recondita; in vivo", "result": "potent control values"},
      {"measurement": "MIC", "setting": "Pythium ultimum", "result": 1, "unit": "µg/mL"},
      {"measurement": "MIC", "setting": "Alternaria kikuchiana", "result": 8, "unit": "µg/mL"},
      {"measurement": "MIC", "setting": "Rhizoctonia solani", "result": 16, "unit": "µg/mL"}
    ]}
  ]
}
